Laboratory results: patent US9974775B2, “Substituted imidazoles as N-type calcium channel blockers” (Janssen Pharmaceutica NV, priority 2013, dated 2018)
Read-outs that look alike come from different tables or passages of the source.

Tests used:
[1] = test system: mechanical allodynia after L5/L6 spinal nerve ligation; test: Sciatic nerve ligation (SNL) model of neuropathic pain; format: in vivo; details: rats; dose 50 mg/kg; response at Tmax
Description: Left L5 and L6 spinal nerves are isolated adjacent to the vertebral column and were ligated with 5-0 silk suture distal to the dorsal root ganglion, as described by Kim and Chung (1992). The incision was closed with the help of GLUture topical tissue adhesive. At 14 days post-surgery (one day prior to test compound administration), mechanical allodynia was quantified using eight von Frey filaments, calibrated in the range 0.4-15.1 g (Nielsen et al 2005). Rats were placed into individual plastic containers on top of a suspended wire mesh grid and acclimated to the test chambers for at least 15 min. Filaments were applied perpendicular to the mid-plantar paw surface, with enough force to cause slight buckling, and held in place for 6-8 sec until a response was noted as a sharp paw withdrawal, flinching, licking and/or biting immediately upon removal of the filament (Nielsen et al 2005). […] Test compounds of Formula (I) were administered and a response was measured at Tmax. The maximum possible effect (% MPE) was determined to be 100% if the sensitivity in the ipsilateral paw neared that of the contralateral paw. Values from vehicle-treated animals were considered 0%. The compound effect was determined based on these values.

human N-type Ca channel [2] = target: T1, human N-type Ca channel (Homo sapiens, UniProt Q00975); test: Measurement of electrophysiological response (QPatch); details: for IC50: concentration range 0.3-10 μM
T1 sequence (Q00975 whole entry): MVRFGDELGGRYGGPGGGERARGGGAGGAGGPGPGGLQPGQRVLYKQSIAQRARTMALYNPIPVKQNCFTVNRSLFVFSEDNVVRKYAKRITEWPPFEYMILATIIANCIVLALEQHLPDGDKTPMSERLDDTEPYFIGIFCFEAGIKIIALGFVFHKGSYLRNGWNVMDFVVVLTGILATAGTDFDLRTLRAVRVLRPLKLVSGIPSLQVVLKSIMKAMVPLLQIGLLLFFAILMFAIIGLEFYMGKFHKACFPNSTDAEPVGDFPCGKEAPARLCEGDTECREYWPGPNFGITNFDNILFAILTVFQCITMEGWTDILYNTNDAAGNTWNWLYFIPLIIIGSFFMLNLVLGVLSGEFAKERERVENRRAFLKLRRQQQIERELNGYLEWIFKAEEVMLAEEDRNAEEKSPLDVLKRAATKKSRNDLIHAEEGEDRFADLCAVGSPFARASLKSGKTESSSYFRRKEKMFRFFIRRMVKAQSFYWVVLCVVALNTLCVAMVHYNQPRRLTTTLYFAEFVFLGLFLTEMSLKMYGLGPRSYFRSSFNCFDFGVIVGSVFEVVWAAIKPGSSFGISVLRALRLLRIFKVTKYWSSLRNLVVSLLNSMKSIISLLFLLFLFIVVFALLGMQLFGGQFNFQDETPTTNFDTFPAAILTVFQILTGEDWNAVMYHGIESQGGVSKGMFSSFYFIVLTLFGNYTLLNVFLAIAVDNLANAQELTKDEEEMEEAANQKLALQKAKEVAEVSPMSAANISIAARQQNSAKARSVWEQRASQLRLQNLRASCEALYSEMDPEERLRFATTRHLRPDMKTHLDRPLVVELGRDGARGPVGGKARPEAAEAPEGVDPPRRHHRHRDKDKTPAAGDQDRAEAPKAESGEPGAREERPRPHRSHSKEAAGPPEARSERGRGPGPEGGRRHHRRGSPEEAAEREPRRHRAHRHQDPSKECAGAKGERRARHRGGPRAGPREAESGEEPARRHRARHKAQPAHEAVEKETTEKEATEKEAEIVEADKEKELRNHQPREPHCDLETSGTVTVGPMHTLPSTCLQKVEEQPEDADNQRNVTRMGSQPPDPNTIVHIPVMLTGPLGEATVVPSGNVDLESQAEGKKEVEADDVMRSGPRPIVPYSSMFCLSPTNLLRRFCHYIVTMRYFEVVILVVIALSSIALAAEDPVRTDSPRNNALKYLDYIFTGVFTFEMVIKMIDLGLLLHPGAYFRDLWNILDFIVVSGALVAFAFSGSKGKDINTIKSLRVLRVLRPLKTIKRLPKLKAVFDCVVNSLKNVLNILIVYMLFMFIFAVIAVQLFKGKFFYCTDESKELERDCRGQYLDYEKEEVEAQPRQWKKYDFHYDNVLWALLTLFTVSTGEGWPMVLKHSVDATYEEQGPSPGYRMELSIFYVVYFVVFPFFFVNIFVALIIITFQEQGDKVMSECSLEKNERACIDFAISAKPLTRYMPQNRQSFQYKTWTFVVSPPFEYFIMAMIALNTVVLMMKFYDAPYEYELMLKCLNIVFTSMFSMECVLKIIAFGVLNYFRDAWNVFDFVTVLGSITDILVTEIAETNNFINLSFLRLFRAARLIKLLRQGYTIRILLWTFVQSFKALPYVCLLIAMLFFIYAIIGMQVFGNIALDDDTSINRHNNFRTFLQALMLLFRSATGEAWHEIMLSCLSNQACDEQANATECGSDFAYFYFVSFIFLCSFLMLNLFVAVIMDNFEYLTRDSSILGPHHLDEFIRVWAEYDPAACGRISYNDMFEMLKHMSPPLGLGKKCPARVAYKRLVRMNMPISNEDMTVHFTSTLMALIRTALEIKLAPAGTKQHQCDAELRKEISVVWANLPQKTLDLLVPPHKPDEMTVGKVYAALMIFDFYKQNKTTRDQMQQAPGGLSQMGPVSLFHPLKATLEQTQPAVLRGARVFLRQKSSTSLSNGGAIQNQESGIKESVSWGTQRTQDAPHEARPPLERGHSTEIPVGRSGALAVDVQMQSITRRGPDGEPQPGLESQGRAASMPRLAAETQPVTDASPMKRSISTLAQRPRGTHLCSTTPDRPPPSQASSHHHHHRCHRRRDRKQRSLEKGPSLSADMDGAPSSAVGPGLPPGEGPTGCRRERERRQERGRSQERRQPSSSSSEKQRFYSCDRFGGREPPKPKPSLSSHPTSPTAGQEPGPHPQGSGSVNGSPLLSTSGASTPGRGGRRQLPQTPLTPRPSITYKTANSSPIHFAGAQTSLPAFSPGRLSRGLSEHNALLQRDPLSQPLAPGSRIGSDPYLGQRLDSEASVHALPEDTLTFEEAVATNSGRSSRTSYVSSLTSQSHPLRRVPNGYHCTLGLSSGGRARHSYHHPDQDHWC
T1 sequence (P54284 whole entry partner): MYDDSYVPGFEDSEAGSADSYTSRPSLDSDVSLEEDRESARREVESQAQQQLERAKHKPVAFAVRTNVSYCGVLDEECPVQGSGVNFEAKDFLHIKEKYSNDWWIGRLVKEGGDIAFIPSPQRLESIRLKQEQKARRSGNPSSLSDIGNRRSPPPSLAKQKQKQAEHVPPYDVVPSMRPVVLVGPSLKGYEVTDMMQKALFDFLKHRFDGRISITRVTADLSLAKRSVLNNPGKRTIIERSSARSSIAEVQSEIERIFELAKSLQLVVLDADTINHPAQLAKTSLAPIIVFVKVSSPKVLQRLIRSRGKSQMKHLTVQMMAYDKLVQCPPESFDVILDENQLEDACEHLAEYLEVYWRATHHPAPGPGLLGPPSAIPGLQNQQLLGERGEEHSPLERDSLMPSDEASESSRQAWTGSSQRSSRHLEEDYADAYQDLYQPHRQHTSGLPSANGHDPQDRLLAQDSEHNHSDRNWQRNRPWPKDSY
T1 sequence (P54289 25-956 partner limits assumed): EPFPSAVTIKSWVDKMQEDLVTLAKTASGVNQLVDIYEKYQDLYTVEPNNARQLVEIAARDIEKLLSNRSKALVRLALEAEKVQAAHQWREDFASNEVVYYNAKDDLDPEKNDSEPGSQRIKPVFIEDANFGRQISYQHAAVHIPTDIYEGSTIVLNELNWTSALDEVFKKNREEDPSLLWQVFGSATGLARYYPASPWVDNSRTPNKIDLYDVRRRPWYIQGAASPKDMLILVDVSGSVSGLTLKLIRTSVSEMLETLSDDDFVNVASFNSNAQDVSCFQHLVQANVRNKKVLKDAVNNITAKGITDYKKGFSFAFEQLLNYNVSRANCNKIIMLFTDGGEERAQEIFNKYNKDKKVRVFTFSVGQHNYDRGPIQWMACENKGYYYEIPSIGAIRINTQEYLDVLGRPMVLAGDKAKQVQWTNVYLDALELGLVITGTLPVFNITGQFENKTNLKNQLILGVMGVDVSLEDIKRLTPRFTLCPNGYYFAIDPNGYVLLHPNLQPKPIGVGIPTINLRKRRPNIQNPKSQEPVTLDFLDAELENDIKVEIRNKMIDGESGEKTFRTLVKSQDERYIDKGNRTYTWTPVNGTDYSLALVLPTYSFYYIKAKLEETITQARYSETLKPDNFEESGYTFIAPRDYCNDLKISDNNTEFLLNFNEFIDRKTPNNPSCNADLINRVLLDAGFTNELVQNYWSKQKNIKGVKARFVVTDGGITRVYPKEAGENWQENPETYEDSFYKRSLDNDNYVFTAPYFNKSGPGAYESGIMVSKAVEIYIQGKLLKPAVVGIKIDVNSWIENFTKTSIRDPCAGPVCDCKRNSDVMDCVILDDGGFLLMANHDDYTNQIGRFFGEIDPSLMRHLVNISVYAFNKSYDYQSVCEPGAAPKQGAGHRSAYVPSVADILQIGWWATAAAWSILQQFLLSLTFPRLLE
T1 sequence (P54289 957-1103 partner limits assumed): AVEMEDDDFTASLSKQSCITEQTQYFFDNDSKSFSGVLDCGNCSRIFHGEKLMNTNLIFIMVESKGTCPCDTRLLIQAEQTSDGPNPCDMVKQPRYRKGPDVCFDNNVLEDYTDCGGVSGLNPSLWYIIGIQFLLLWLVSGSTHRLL
Method: The recombinant cell line described above was used in the measurement of electrophysiological properties with QPatch (Sophion). […] Prior to the experiment, the flasks were moved to 30° C. and incubated for 48-72 hrs. On the day of assaying, cells were detached and harvested. The cell pellet was re-suspended in SMF4HEK (HyClone)/25 mM HEPS at 2-5 million/mL and placed on the QStirrer of the QPatch for 30-60 min prior to the start of the assay. […] Microtiter-Plate/Reference Buffer contained 140 mM TEA-Cl, 10 mM BaCl2, 0.8 mM MgCl2, 10 mM HEPES pH˜7.4 adjusted with TEA-OH/HCl, and ˜300 mOsm. Cells were transferred to a QPatch 48 plate and gigaseal was formed. The plate was perfused with intracellular and extracellular buffer. […] In brief, cells were depolarized from resting potential of −80 mV to +20 mV and current was recorded. Data was plotted as percent inhibition vs concentration of the compound and IC50 values were generated using Graphpad Prism non-linear regression analysis.

human N-type Ca channel [3] = target: T1, human N-type Ca channel; test: Calcium influx assay (FDSS); format: cell-based; set-up: host or cells: HEK 293; details: HEK 293 cells, depolarized with 100 mM KCl
Method: All cell culture reagents were procured from HyClone and other reagents were from Fisher. Recombinant HEK 293 cells expressing human N-type Ca channel (Millipore) were maintained in DMEM F12 containing 10% FBS and selection antibiotics at 37° C. in 5% CO2.
Cells were incubated at 30° C. in 5% CO2 overnight. The medium was removed and cells were loaded with Fluo8 dye (AAT Bioquest) at 37° C. and 30° C., 30 min each in darkness. Cells were washed four times with wash buffer (16 mM Herep pH 7.2, 2 mM CaCl2, 1 mM MgCl2, 5 mM glucose, 140 mM choline chloride and 2 mM KCl) leaving 15 μL buffer after the last wash. Compounds of Formula (I), serially diluted, were added to the cell plate. The plates were incubated in darkness for 15 min. Cells were depolarized with 100 mM KCl and Ca influx was measured.

[4] = N Type IC50 Data Qpatch Pulse = 1, Pulse = 1
[5] = N Type IC50 Data Qpatch Pulse = 15, Pulse = 15

| IC50 (human N-type Ca channel [2]; [4]) | IC50 (human N-type Ca channel [2]; [5]) | IC50 (human N-type Ca channel [3]) | inhibition at 10 µM (human N-type Ca channel [2]; read-out: Qpatch Pulse = 1 (percent inhibition)) | inhibition at 10 µM (human N-type Ca channel [2]; read-out: Qpatch Pulse = 15 (percent inhibition)) | Compound | SNL(% MPE) [1] |
| --- | --- | --- | --- | --- | --- | --- |
|  |  |  |  |  | COc1ccccc1-c1nc(C2CC(C)(C)OC(C)(C)C2)cn1-c1ccc(C#N)cc1 [Cpd 1, 4-(2-(2-methoxyphenyl)-4-(2,2,6,6-tetramethyltetrahydro-2H-pyran-4-yl)-1H-imidazol-1-yl)benzonitrile] | 64.07 ± 12.31% |
| 6.6 µM | 3.3 µM | 0.233 µM |  |  | COc1ccccc1-c1nc(C2CC(C)(C)OC(C)(C)C2)cn1-c1ccc(C#N)c(C(F)(F)F)c1 [Cpd 121, 4-[2-(2-Methoxyphenyl)-4-(2,2,6,6-tetramethyltetrahydro-2H-pyran-4-yl)-1H-imidazol-1-yl]-2-(trifluoromethyl)benzonitrile] |  |
| ≥ 10 µM | ≥ 10 µM | ≥ 10 µM |  |  | COc1ccccc1-c1nc(C2CC(C)(C)OC(C)(C)C2)cn1Cc1cncnc1 [Cpd 100, 5-{[2-(2-Methoxyphenyl)-4-(2,2,6,6-tetramethyltetrahydro-2H-pyran-4-yl)-1H-imidazol-1-yl]methyl}pyrimidine] |  |
|  |  | 0.488 µM | 36% | 44% | COc1ccccc1-c1nc(C2CC(C)(C)OC(C)(C)C2)cn1-c1ccc(F)c(C#N)c1 [Cpd 74, 2-Fluoro-5-[2-(2-methoxy-phenyl)-4-(2,2,6,6-tetramethyl-tetrahydro-pyran-4-yl)-imidazol-1-yl]-benzonitrile] |  |
